This note sets out measurements from patent US9604974B2, “Compounds as modulator of JAK-STAT pathway, methods and applications thereof” (UNIVERSITY OF MYSORE, priority 2015, dated 2017).

One assay concerns c-Src. Description: Western blot of constitutive phospho-Src in HepG2. The conditions noted are these: HepG2, 10 μMol/L CIMO. The assay is classed as cell-based, human. A general note: In western blotting, separated proteins are transferred to a membrane and probed.
The subject of a further assay is phospho-STAT3 (Ser-727). Description: Western blot of phospho-STAT3 (Ser-727) in HepG2. The class given is cell-based, human. The conditions noted are these: HepG2, 10 μMol/L CIMO. Here is the method: (§1) FIG. 2 depicts the suppression of phospho-STAT3 by compound 1 (CIMO) in a dose dependent manner [A]. HepG2 cells (5×10^5/mL) are treated with the indicated concentrations of CIMO for 6 hours, after which whole-cell extracts are prepared and resolved on SDS-PAGE gel, electrotransferred onto nitrocellulose membrane, and probed for phospho-STAT3. The same blot is stripped and reprobed with STAT3 antibody to verify equal protein loading. […] HepG2 cells (5×10^5/mL) are treated with the indicated concentrations of AG490 for about 6 hours, after which Western Blotting is done as described for [A]. [C] depicts the suppression of phospho-STAT3 levels by Compound 1 (CIMO) in a time-dependent manner. HepG2 cells (5×10^5/mL) are treated with 10 μMol/L CIMO for the indicated times, after which Western blotting is done as described for [A]. [D] depicts that compound 1 (CIMO) has no effect on phospho-STAT3 (Ser-727) and STAT3 protein expression. […] HepG2 cells (1×10^5/mL) are incubated with or without 10 μMol/L CIMO for about 6 hours and then analyzed for the intracellular distribution of STAT3 by immunocytochemistry. The same slides are counterstained for nuclei with Hoechst (50 ng/mL) for about 5 minutes and analyzed under an fluorescencemicroscope. […]

For assay [1], the system named is MDA MB231 (breast cancer cell line). Description: MTT anti-proliferative assay, MDA MB231. The conditions noted are these: Homo sapiens, MDA-MB-231. The class given is cell-based. Here is the method: The anti-proliferative activity of Formula I compounds are studied on HepG2 cells using MTT assay. Briefly, the cells (2.5×10^4/ml) are incubated in triplicate in a 96-well plate in the presence or absence of different concentrations of compounds in a final volume of 0.2 ml up to 72 hours at 37° C. Thereafter, 20 μl MTT solution (5 mg/ml in PBS) is added to each well. After 2 hours of incubation at 37° C., 0.1 ml lysis buffer (20% SDS, 50% dimethyl-formamide) is added; incubation is continued overnight at 37° C.; and the optical density (OD) at 570 nm is measured by Tecan plate reader.
Additionally, Compound 1 is tested on a panel of six cell lines including Hep3B, PLC/PRF5, AGS (gastric cancer cell line), DU145 (prostrate cancer cell line), MDA MB231 (breast cancer cell line) and CAL27 (head and neck cancer cell line) cells.

In a further assay the test system is JAK2. As to the kind of experiment: Western blot of constitutive phospho-JAK2 in HepG2. The assay is classed as cell-based, human. The conditions noted are these: HepG2, 10 μMol/L CIMO. The protocol:
as §1

A further assay concerns Huh 7-Luc tumors. As to the kind of experiment: Orthotopic human HCC model, bioluminescence tumor growth. The assay is classed as in vivo, athymic nu/nu female mice. The note with it: 10 mg/kg intraperitoneal, five days a week; p value=0.0385. The protocol: All animal experiments were performed according to protocols approved by the SingHealth Institutional Animal Use and Care Committee. For drug efficacy study, eight week-old athymic nu/nu female mice (from Biolasco, Taiwan) were implanted with the Huh 7-Luc cells orthotopically as described in the below examples. When the bioluminescence signal reached 10^6, mice were treated either with vehicle (1% DMSO), 2 mg/kg of CIMO or 10 mg/kg of CIMO five days a week intraperitoneally. Tumor development was monitored twice a week by measuring the bioluminescence signals. Mice were euthanized when the humane end-point criteria is met by CO2 inhalation. Primary liver tumor and lung tissues were excised, snap-frozen and stored at −80° C. until further analysis.
The antitumor potential of CIMO is tested in vivo via. intra-peritoneal administration in an orthotopic model of human HCC using Huh 7-Luc transfected cells. 100 μl containing 3×10^6 Huh 7-Luc cells are injected subcutaneously in the right flank of Nude mice. When the tumor volume reaches approximately 1 cm^3, tumor is harvested, cut into 2 mm^3 pieces and then implanted orthotopically into the liver of Nude mice. […] The development of tumors is monitored by imaging and quantification of the bioluminescence signals using the Xenogen IVIS system (Caliper Life Sciences, CA). […]

Regarding `COc1ccc(C2CNC(c3cn(Cc4ccc(-c5ccccc5C#N)cc4)c4ccccc34)OC23CCCCC3)cc1` (centres unmarked) [Compound 1], the “phosphorylation of c-Src kinases” value with c-Src is “significant inhibition”. For the same compound, in the assay with phospho-STAT3 (Ser-727), the “phosphorylation of S727 of STAT3” value is given as “no effect”. In addition, in assay [1], the IC50 (as a rule, the concentration needed to halve the response being measured) worked out at 24.3 µM. Further, the “phosphorylation of JAK2” value with JAK2 is on record as “significant inhibition”. Further, the “tumor growth versus DMSO treated controls” value with Huh 7-Luc tumors is recorded as “significant inhibition of tumor growth”.
